Assay results published in patent publication US20020061888A1, “Combination therapy for the prophylaxis and treatment of hyperlipidemic conditions and disorders” (priority 2000, published 2002).

Tests used:
Assay type in all cases: in vivo
Male beagle dogs [1] = experiment: Fecal bile acid concentration in beagle dogs (enzymatic 3α-hydroxysteroid dehydrogenase assay of fecal extracts); conditions: for FECAL BILE ACID CONCENTRATION: n = 6; for % change in fecal bile acid: Week 2, footnote: vs pretreatment, text b128: vs vehicle
Protocol: Male beagle dogs (9-10 kg) obtained from Marshall farms were fed a normal chow diet once a day for a two hour interval and given water ad libitum. Prior to initiating treatment, the dogs were weighed and blood samples were drawn from the cephalic vein of each dog following an overnight fast to evaluate pretreatment serum total cholesterol levels at the start of the study. […] All doses were administered in gelatin capsules per os to each dog between 9:00-9:30 a.m. prior to feeding. All animals were fed between 9:30-10:00 a.m. and were allowed two hours to eat, at which time any remaining food was removed. […] Three consecutive 24 hour fecal samples were collected for each group during the last 72 hours of each week and used to measure the concentration of fecal biles acids excreted during that time period.
Fecal samples were collected to determine the fecal bile acid (“FBA”) concentration for each animal. Three consecutive 24 hour fecal samples were collected between 8:00 a.m. and 9:00 a.m. each day, prior to dosing and feeding, during the last 72 hour period of each week. The separate daily collections from each dog were weighed, combined and homogenized with distilled water in a food processor to generate a homogeneous slurry. A 1.4 g sample of fecal homogenate was extracted with 2.6 mL of a solution containing tertiary butanol:distilled water in the ratio of 2:0.6 (final concentration of 50% tertiary butanol v/v distilled water) for 45 minutes in a 37° C. water bath and centrifuged for 13 minutes at 2000 x g. The concentration of bile acids (μmoles/gram homogenate) was determined using a 96-well enzymatic assay system described in van der Meer et al., “t-Butanol Extraction of Feces: A Rapid Procedure For Enzymic Determination Of Fecal Bile Acids”, Cholesterol, Metabolism in Health and Disease: Studies in the Netherlands, edited by Beynen, et al., Ponsen and Looyen, Wageningen, 1985; and Turley et al., “Re-evaluation of the 3 Alpha-Hydroxysteroid Dehydrogenase Assay For Total Bile Acids In Bile”, J. Lipid Research, 19:924-928, 1978.
A 20 μL aliquot of each fecal extract was added to each of two sets of triplicate wells in a 96-well assay plate. A standardized sodium taurocholate solution and a standardized fecal extract solution (previously made from pooled samples and characterized for its bile acid concentration) were also analyzed for assay quality control. A standard curve of five points containing 30-540 nmoles/well was generated by serial dilutions of an initial 20 μL aliquot of 90 mM sodium taurocholate. A 230 μL aliquot of a reaction mixture containing 1M hydrazine hydrate, 0.1 M pyrophosphate and 0.46 mg/ml NAD was added to each well. Subsequently, a 50 μL aliquot of either 3α-hydroxysteroid dehydrogenase (“HSD”) enzyme (0.8 units/mL) or assay buffer (0.1 M sodium pyrophosphate) was then added to one each of the two sets of triplicates. Following 60 minutes of incubation at room temperature, the optical density at 340 nm was measured and the mean of each set of triplicate samples was calculated. The difference in optical density with and without HSD enzyme was used to determine the bile acid concentration (mM) of each sample based on the sodium taurocholate standard curve. The bile acid concentration of the extract (μmoles/gram homogenate), the total weight of the fecal homogenate (grams) and the body weight of the dogs (kg) were used to calculate the corresponding fecal bile acid concentration in μtmoles/kg/day for each animal.
All reagents used for the assay were obtained from Sigma Chemical Co., St. Louis, Mo. (HSD enzyme—catalog # H-1506; NAD—catalog # N1636; sodium taurocholate—catalog # T-4009).

Male beagle dogs [2] = experiment: Serum triglyceride in beagle dogs; conditions: n = 6
Protocol: (§1) Following this initial four week dose-ranging study, dogs from the two groups receiving 10 mg/kg/day pravastatin (a.m. and p.m. dosing groups) were randomized into two new treatment groups based on serum total cholesterol levels to initiate the combination treatment study. […] Dosing continued in this manner for an additional four weeks (Weeks 5-8) with blood and 48-hour fecal samples collected at the end of each week for serum lipid measurements and fecal bile acid determinations, respectively. […] At the end of this three-week period, pravastatin dosing and all empty capsule dosing were discontinued and blood samples were collected weekly for a final three weeks (weeks 12-14) to monitor the return of serum total cholesterol levels back to baseline.
Blood was collected from the cephalic vein of each dog into serum separator tubes. The blood was centrifuged at 900×g for 20 minutes at room temperature and the serum decanted. All analyses were performed on a Cobas Mira Clinical Analyzer System (Roche Diagnostic Systems, Branchburg, N.J.) using Roche Diagnostic reagents for enzymatic determinations of serum cholesterol and triglycerides. Commercial calibrator and quality control materials were analyzed with each run to verify assay accuracy and precision. A two-tailed, paired Students t-test was used to determine the statistical significance of changes in total serum cholesterol in treated animals compared to their pretreatment values. A two-sample, two-tailed unequal variance Students t-test was used to determine serum total cholesterol and triglyceride changes in the combination therapy group compared to the monotherapy groups. […]

Male beagle dogs [3] = experiment: Body or fecal weights, stool consistency, general animal health of treated beagle dogs; conditions: any of the groups
Protocol: Male beagle dogs (9-10 kg) obtained from Marshall farms were fed a normal chow diet once a day for a two hour interval and given water ad libitum. Prior to initiating treatment, the dogs were weighed and blood samples were drawn from the cephalic vein of each dog following an overnight fast to evaluate pretreatment serum total cholesterol levels at the start of the study. […] All doses were administered in gelatin capsules per os to each dog between 9:00-9:30 a.m. prior to feeding. All animals were fed between 9:30-10:00 a.m. and were allowed two hours to eat, at which time any remaining food was removed. […] Animals were dosed daily for three weeks and blood samples were taken at the end of each week after an overnight fast for comparison with pretreatment serum total cholesterol levels. Three consecutive 24 hour fecal samples were collected for each group during the last 72 hours of each week and used to measure the concentration of fecal biles acids excreted during that time period.
as §1
Male beagle dogs (9-10 kg) obtained from Marshall farms were fed once a day for two hours and given water ad libitum.

[4] = compound A-5 monotherapy 4.0 mg/kg/day, dosed Weeks 5-8, Week 5, mean ± SEM
[5] = compound A-5 monotherapy 4.0 mg/kg/day, dosed Weeks 5-8, Week 6, mean ± SEM
[6] = compound A-5 monotherapy 4.0 mg/kg/day, dosed Weeks 5-8, Week 7, mean ± SEM
[7] = compound A-5 monotherapy 4.0 mg/kg/day, dosed Weeks 5-8, Week 8, mean ± SEM
[8] = compound A-5 monotherapy group, dosing terminated after Week 8, Week 9, mean ± SEM
[9] = compound A-5 monotherapy group, dosing terminated after Week 8, Week 10, mean ± SEM

CCCCC1(CC)CS(=O)(=O)c2ccc(N(C)C)cc2[C@@H](c2cccc(OCc3ccc(C[N+]45CCN(CC4)CC5)cc3)c2)[C@H]1O.[Cl-] (stereo partly drawn) [Compound A-5]
return of fecal bile acid levels to their pretreatment levels after the last day of compound A-5 dosing (Male beagle dogs [1]; Example 3, 4.0 mg/kg/day compound A-5 for four weeks, alone or with 10 mg/kg/day pravastatin): within one week | FECAL BILE ACID CONCENTRATION (Male beagle dogs [1]; compound A-5 0.22 mg/kg/day per os, Week 1, mean ± SEM): 89 ± 9^3 μmol/day/kg | % change in fecal bile acid (Male beagle dogs [1]; compound A-5 0.22 mg/kg/day per os): (270) % | FECAL BILE ACID CONCENTRATION (Male beagle dogs [1]; compound A-5 0.22 mg/kg/day per os, Week 2, mean ± SEM): 100 ± 11^3 μmol/day/kg | FECAL BILE ACID CONCENTRATION (Male beagle dogs [1]; compound A-5 0.22 mg/kg/day per os, Week 3, mean ± SEM): 81 ± 7^3 μmol/day/kg | FECAL BILE ACID CONCENTRATION (Male beagle dogs [1]; compound A-5 0.66 mg/kg/day per os, Week 1, mean ± SEM): 134 ± 19^3 μmol/day/kg | % change in fecal bile acid (Male beagle dogs [1]; compound A-5 0.66 mg/kg/day per os): (396) % | FECAL BILE ACID CONCENTRATION (Male beagle dogs [1]; compound A-5 0.66 mg/kg/day per os, Week 2, mean ± SEM): 134 ± 16^3 μmol/day/kg | FECAL BILE ACID CONCENTRATION (Male beagle dogs [1]; compound A-5 0.66 mg/kg/day per os, Week 3, mean ± SEM): 126 ± 12^3 μmol/day/kg | FECAL BILE ACID CONCENTRATION (Male beagle dogs [1]; compound A-5 2.0 mg/kg/day per os, Week 1, mean ± SEM): 168 ± 13^3 μmol/day/kg | % change in fecal bile acid (Male beagle dogs [1]; compound A-5 2.0 mg/kg/day per os): (411) % | FECAL BILE ACID CONCENTRATION (Male beagle dogs [1]; compound A-5 2.0 mg/kg/day per os, Week 2, mean ± SEM): 138 ± 12^3 μmol/day/kg | FECAL BILE ACID CONCENTRATION (Male beagle dogs [1]; compound A-5 2.0 mg/kg/day per os, Week 3, mean ± SEM): 164 ± 11^3 μmol/day/kg | FECAL BILE ACID CONCENTRATION (Male beagle dogs [1]; compound A-5 6.0 mg/kg/day per os, Week 1, mean ± SEM): 190 ± 18^3 μmol/day/kg | % change in fecal bile acid (Male beagle dogs [1]; compound A-5 6.0 mg/kg/day per os): (674) % | FECAL BILE ACID CONCENTRATION (Male beagle dogs [1]; compound A-5 6.0 mg/kg/day per os, Week 2, mean ± SEM): 209 ± 27^3 μmol/day/kg | FECAL BILE ACID CONCENTRATION (Male beagle dogs [1]; compound A-5 6.0 mg/kg/day per os, Week 3, mean ± SEM): 179 ± 16^3 μmol/day/kg | % change in fecal bile acid concentration from Week 0 (Male beagle dogs [1]; compound A-5 monotherapy 4.0 mg/kg/day, dosed Weeks 5-8, Week 5): (+293)^4% | FECAL BILE ACID CONCENTRATION (Male beagle dogs [1]; [4]): 106 ± 13^3 μmol/kg/day | % change in fecal bile acid concentration from Week 0 (Male beagle dogs [1]; compound A-5 monotherapy 4.0 mg/kg/day, dosed Weeks 5-8, Week 6): (+374) % | FECAL BILE ACID CONCENTRATION (Male beagle dogs [1]; [5]): 128 ± 17^3 μmol/kg/day | % change in fecal bile acid concentration from Week 0 (Male beagle dogs [1]; compound A-5 monotherapy 4.0 mg/kg/day, dosed Weeks 5-8, Week 7): (+578) % | FECAL BILE ACID CONCENTRATION (Male beagle dogs [1]; [6]): 183 ± 39^3 μmol/kg/day | FECAL BILE ACID CONCENTRATION (Male beagle dogs [1]; [7]): 109 ± 23^3 μmol/kg/day | % change in fecal bile acid concentration from Week 0 (Male beagle dogs [1]; compound A-5 monotherapy group, dosing terminated after Week 8, Week 9): (+48) % | FECAL BILE ACID CONCENTRATION (Male beagle dogs [1]; [8]): 40 ± 6 µmol/kg/day | % change in fecal bile acid concentration from Week 0 (Male beagle dogs [1]; compound A-5 monotherapy group, dosing terminated after Week 8, Week 10): (+59) % | FECAL BILE ACID CONCENTRATION (Male beagle dogs [1]; [9]): 43 ± 4 µmol/kg/day | TOTAL SERUM TRIGLYCERIDE (Male beagle dogs [2]; [4]): 37 ± 3 mg/dL | TOTAL SERUM TRIGLYCERIDE (Male beagle dogs [2]; [5]): 32 ± 3 mg/dL | TOTAL SERUM TRIGLYCERIDE (Male beagle dogs [2]; [6]): 36 ± 3 mg/dL | TOTAL SERUM TRIGLYCERIDE (Male beagle dogs [2]; [7]): 34 ± 3 mg/dL | TOTAL SERUM TRIGLYCERIDE (Male beagle dogs [2]; [8]): 39 ± 3 mg/dL | TOTAL SERUM TRIGLYCERIDE (Male beagle dogs [2]; [9]): 42 ± 4 mg/dL | TOTAL SERUM TRIGLYCERIDE (Male beagle dogs [2]; compound A-5 monotherapy group, dosing terminated after Week 8, Week 11, mean ± SEM): 34 ± 3 mg/dL | TOTAL SERUM TRIGLYCERIDE (Male beagle dogs [2]; compound A-5 monotherapy group, dosing terminated after Week 8, Week 12, mean ± SEM): 51 ± 5 mg/dL | TOTAL SERUM TRIGLYCERIDE (Male beagle dogs [2]; compound A-5 monotherapy group, dosing terminated after Week 8, Week 13, mean ± SEM): 46 ± 3 mg/dL | changes in body or fecal weights, stool consistency or general animal health (Male beagle dogs [3]; Example 1, compound A-5 0.22-6.0 mg/kg/day for three weeks): no significant changes | changes in body or fecal weights, stool consistency or general animal health (Male beagle dogs [3]; Example 3 study (pravastatin 3-30 mg/kg/day, compound A-5 4.0 mg/kg/day, combination)): no significant changes
